Assay results reported in patent publication EP2608671B1, “COMPOUNDS FOR TREATMENT OF CANCER” (Gtx, Inc., priority 2010, dated 2012).
Where two headings read alike, the source gives them in different places.

Assays:
DU 145 = assay: cells; details: Homo sapiens, DU-145, 96 h
A375 = assay: SRB cell growth inhibition (cytotoxicity) assay; format: cell-based, human
LNCaP = assay: cells; details: Homo sapiens, 96 h, read-out: IC50 ± SEM (nM), LNCaP
B16-F1 = assay: SRB cell growth inhibition (cytotoxicity) assay; format: cell-based, mouse
From the text: (§1) The only compounds which belong to the invention are the ones falling under the scope of formula (XI).

PPC-1 = assay: cells; details: Homo sapiens, PPC-1, 96 h, read-out: IC50 ± SEM (nM), PPC-1
PC-3 = assay: cells; details: Homo sapiens, PC-3, 96 h, read-out: IC50 ± SEM (nM), PC-3
From the text: as §1
Cells were stained with SRB solution.
Cells. […] Cells between the third and fifth passages were used for experiments.
Cell growth inhibition studies. […] Cells were stained with sulphorhodamine B (SRB) solution.

WM-164 = assay: SRB cell growth inhibition (cytotoxicity) assay; format: cell-based, human; details: Homo sapiens
[1] = read-out: IC50 ± SEM (nM), DU 145
[2] = Homo sapiens, A-375, 96 h; read-out: IC50 ± SEM (nM), A375
[3] = Mus musculus, B16-F1; read-out: IC50 ± SEM (nM), B16-F1
[4] = WM164, SRB assay, 96 h, Table 2, read-out: IC50 ± SEM (nM), WM-164
[5] = read-out: IC50 ± SEM (nM) Du 145
[6] = Homo sapiens, A-375; A375 melanoma cells, 48 h, SRB; read-out: IC50 ± SEM (nM) A375
[7] = Mus musculus; B16-F1 melanoma cells, 48 h, SRB; read-out: IC50 ± SEM (nM) B16-F1
[8] = WM164 melanoma cells, 48 h, SRB, read-out: IC50 ± SEM (nM) WM164

Structure (SMILES) | IC50 (DU 145; [1]) [nM] | IC50 (A375; Homo sapiens, A-375, 96 h, read-out: IC50 ± SEM (nM), A375) [nM] | IC50 (LNCaP) [nM] | IC50 (B16-F1; Mus musculus, B16-F1, read-out: IC50 ± SEM (nM), B16-F1) [nM] | IC50 (PPC-1) [nM] | IC50 (PC-3) [nM] | IC50 (WM-164; WM164, 96 h, read-out: IC50 ± SEM (nM), WM-164) [nM] | IC50 (A375; [2]) [nM] | IC50 (B16-F1; [3]) [nM] | IC50 (WM-164; [4]) [nM] | IC50 (DU 145; [5]) [nM] | IC50 (A375; [6]) [nM] | IC50 (B16-F1; [7]) [nM] | IC50 (WM-164; [8]) [nM]
COc1cc(/C=C/c2csc(-c3ccccc3)n2)cc(OC)c1OC [3b, (E)-2-Phenyl-4-(3,4,5-trimethoxystyryl)thiazole] | > 10000 | > 10000 | > 10000 | 32800 ± 13000 | > 10000 | > 10000 | 30800 ± 12000 |  |  |  |  |  |  | 
COc1cc(Sc2cccc(-c3ccccc3)c2)cc(OC)c1OC [4a, Biphenyl-3-yl(3,4,5-trimethoxyphenyl)sulfane] | > 10000 |  | 300 ± 200 |  | 2300 ± 100 | > 10000 |  | 11600 ± 400 | 2400 ± 900 | 2000 |  |  |  | 
COc1cc(S(=O)(=O)c2cccc(-c3ccccc3)c2)cc(OC)c1OC [4b, 3-(3,4,5-Trimethoxyphenylsulfonyl)biphenyl] | > 10000 |  | > 10000 |  | > 10000 | > 10000 |  | > 10000 | > 10000 | > 10000 |  |  |  | 
COc1cc([S+]([O-])c2cccc(-c3ccccc3)c2)cc(OC)c1OC (stereo not drawn) [4c, 3-(3,4,5-Trimethoxyphenylsulfinyl)biphenyl] | > 10000 |  | > 10000 |  | > 10000 | > 10000 |  | > 10000 | > 10000 | > 10000 |  |  |  | 
COc1cc(NS(=O)(=O)c2cccc(-c3ccccc3)c2)cc(OC)c1OC [4d, N-(3,4,5-Trimethoxyphenyl)biphenyl-3-sulfonamide] | > 10000 |  | > 10000 |  | > 10000 | > 10000 |  | > 10000 | > 10000 | > 10000 |  |  |  | 
COc1ccc(C(=O)c2cn(S(=O)(=O)c3ccccc3)c(-c3ccccc3)n2)cc1 [11ab, (4-methoxyphenyl)(2-phenyl-1-(phenylsulfonyl)-1H-imidazol-4-yl)methanone] |  |  | > 10000 |  | > 10000 | > 10000 |  |  |  |  | > 10000 | > 10000 | > 10000 | > 10000
COc1cccc(C(=O)c2cn(S(=O)(=O)c3ccccc3)c(-c3ccccc3)n2)c1 [11ac, (3-methoxyphenyl)(2-phenyl-1-(phenylsulfonyl)-1H-imidazol-4-yl)methanone] |  |  | > 10000 |  | > 10000 | > 10000 |  |  |  |  | > 10000 | > 10000 | > 10000 | > 10000
O=C(c1ccc(F)cc1)c1cn(S(=O)(=O)c2ccccc2)c(-c2ccccc2)n1 [11af, (4-fluorophenyl)(2-phenyl-1-(phenylsulfonyl)-1H-imidazol-4-yl)methanone] |  |  | 573 |  | 575 | 2230 |  |  |  |  | 846 | 630 ± 72 | 946 ± 86 | 596 ± 61
Cc1ccc(C(=O)c2cn(S(=O)(=O)c3ccccc3)c(-c3ccccc3)n2)cc1 [11ah, (2-phenyl-1-(phenylsulfonyl)-1H-imidazol-4-yl)(p-tolyl)methanone] |  |  | > 10000 |  | > 10000 | > 10000 |  |  |  |  | > 10000 | > 10000 | > 10000 | > 10000
